Experimental data published in ChEMBL document CHEMBL3507680, “University of Dundee, Gates Library screen for HepG2 cell viability”.

Experiment: Human HepG2 cell viability assay in 384 well format
Type: toxicity, cell-based
Set-up: dose 125 nL, time 70.5 hour; cytotoxicity at 70.5 h: concentration not given beside the values
Settings: HepG2 cells, read-out: Inhibition

COCCN1CCN(C)C2(CCN(C(=O)c3ccnnc3)CC2)C1=O
cytotoxicity at 70.5 h: -0.603%

CN(CCc1ccc2c(c1)CCO2)C1CCS(=O)(=O)CC1
cytotoxicity at 70.5 h: 16.1%

CC(C)COCC1CN(C(=O)c2cscn2)Cc2ncn(C)c21 (stereo not drawn)
cytotoxicity at 70.5 h: -6.45%

Cn1nccc1CNS(=O)(=O)c1cc(F)ccc1Br
cytotoxicity at 70.5 h: -6.89%

Cc1noc(C)c1C(=O)N1CCCC1c1c(C)nn(C)c1C (stereo not drawn)
cytotoxicity at 70.5 h: -8.88%

CC(C)=CCN1CCN(Cc2ncc[nH]2)[C@H]2CS(=O)(=O)C[C@H]21
cytotoxicity at 70.5 h: -4.55%

Cc1nc(C)c(S(=O)(=O)NC(=O)c2cccs2)s1
cytotoxicity at 70.5 h: -4.64%

COC(=O)CCC(=O)N1CCc2[nH]nc(-c3ccc(F)c(F)c3)c2C1
cytotoxicity at 70.5 h: -8.06%

CCc1nncn1CCNC(=O)N1CCN(Cc2ccccc2)CC1
cytotoxicity at 70.5 h: 3.82%

Cc1ncc2c(n1)CN(CCCOc1ccc(C#N)cc1)CC2
cytotoxicity at 70.5 h: 3.97%

COc1cc(F)c(CN2CC[C@@](O)(C3CC3)[C@H](C)C2)cc1OC
cytotoxicity at 70.5 h: -3.1%

CCN(Cc1noc(CC(C)C)n1)Cc1ccccc1C(=O)O
cytotoxicity at 70.5 h: -6.37%

CN(Cc1cnn(C)c1)c1nccc(-c2cc(C(=O)O)ccn2)n1
cytotoxicity at 70.5 h: 18.1%

O=C(NCCNC(=O)N1CCC(c2ccccc2)C1)C1CC1 (stereo not drawn)
cytotoxicity at 70.5 h: -6.87%

O=C(CC1=CCCCC1)N1CCC(Cn2cc(CCO)nn2)CC1
cytotoxicity at 70.5 h: -11.5%

CN(Cc1cncs1)C1CCN(C(=O)OC(C)(C)C)CC1
cytotoxicity at 70.5 h: -8.3%

O=C1OCCC1N1CCN(c2ccccn2)CC1 (stereo not drawn)
cytotoxicity at 70.5 h: -15.5%

Cc1noc(CCCNC(=O)CNC(=O)c2cc3ccccc3[nH]2)n1
cytotoxicity at 70.5 h: -5.29%

Cc1nsc(NC2CCOC3(CCCC3)C2)n1 (stereo not drawn)
cytotoxicity at 70.5 h: -1.21%

Cn1nccc1-c1nc2c(cc1C(=O)O)CCN(C(=O)C1CC1)CC2
cytotoxicity at 70.5 h: -2.87%

Cc1ccc(C2(CN(C)Cc3sccc3C)CCNCC2)nc1
cytotoxicity at 70.5 h: 10.6%

CN(CCSc1ccccc1)C(=O)C(c1cccnc1)N1CCOCC1 (stereo not drawn)
cytotoxicity at 70.5 h: 33.5%

CN(C)CCNC(=O)c1cnc2c(c1)nc(-c1ccccc1Cl)n2C
cytotoxicity at 70.5 h: -10.7%

CCOc1ncccc1NC(=O)NCC(C)O (stereo not drawn)
cytotoxicity at 70.5 h: -3.67%

O=C1CCCN1Cc1noc(-c2ccc(Cl)cc2)n1
cytotoxicity at 70.5 h: -6.78%

COCCN1C[C@@H]2CN(C(=O)CC3CC3)C[C@@H]2C1=O
cytotoxicity at 70.5 h: -6.26%

COCCN1CCC(CN(C)c2nc3c(s2)c(C)nn3C)CC1
cytotoxicity at 70.5 h: 13.5%

O=C(Nc1cccnc1)NC1(c2cccc(F)c2)CC1
cytotoxicity at 70.5 h: -14.7%

CO[C@H]1CO[C@@]2(CCCN(C(=O)N3CCCC3)C2)C1
cytotoxicity at 70.5 h: 1.63%

O=C(Cc1cccs1)N1CC[C@H]2[C@@H]1CCC(=O)N2c1cccnc1
cytotoxicity at 70.5 h: 2.43%

CC(C)N(C)C(=O)Cn1ncc(N(C)CCc2ccccc2)cc1=O
cytotoxicity at 70.5 h: -3.47%

CC(C)(C)c1n[nH]c(C2CN(C(=O)CCC3CC3)CCO2)n1 (stereo not drawn)
cytotoxicity at 70.5 h: -9.78%

Cc1ncccc1NC(=O)C1=NOC2(CCN(Cc3nccs3)C2)C1 (stereo not drawn)
cytotoxicity at 70.5 h: -11.1%

CC(=O)N1CCN(Cn2nc(-c3ccc(F)cc3)oc2=O)CC1
cytotoxicity at 70.5 h: -8.85%

O=C(CSCc1ccncc1)NCc1csc(Br)c1
cytotoxicity at 70.5 h: -8.77%

CC(=O)N1CC(C)CN(Cc2ccon2)c2ccccc21 (stereo not drawn)
cytotoxicity at 70.5 h: -4.58%

Cc1cc(C)n(-c2cncc(NCCNC(=O)c3cccnc3)n2)n1
cytotoxicity at 70.5 h: -3.57%

CCC(c1ccc(F)cc1F)S(=O)(=O)CCO (stereo not drawn)
cytotoxicity at 70.5 h: -1.73%

O=C(NCC1CC[C@@]2(CNCCOC2)O1)c1cnccn1 (stereo partly drawn)
cytotoxicity at 70.5 h: 27.6%

CC(C)(C)CC(=O)NCC(=O)Nc1ccn(Cc2cccnc2)n1
cytotoxicity at 70.5 h: 3.55%

Cc1cccc(C2CCCN(C(=O)C3CCN(CC(N)=O)CC3)C2)c1 (stereo not drawn)
cytotoxicity at 70.5 h: -17.7%

Nc1cccc(-c2cccc3ccnn23)n1
cytotoxicity at 70.5 h: -6.36%

CCc1[nH]ncc1C(=O)N1CCOC(c2nc(C)n[nH]2)C1 (stereo not drawn)
cytotoxicity at 70.5 h: -2.8%

Clc1ccccc1C1(c2ccnc(-c3ncccn3)n2)CCNCC1
cytotoxicity at 70.5 h: -12.3%

CC(C)=CCN1C(=O)[C@H]2CC[C@@H]1CN(c1ncccc1F)C2
cytotoxicity at 70.5 h: -22.9%

COCCN(Cc1ccc(C)o1)C(=O)Nc1ncc(C)s1
cytotoxicity at 70.5 h: -8.73%

Cc1ncc(C(=O)N2CC(C(=O)N3CCOCC3)C2)c(C)n1
cytotoxicity at 70.5 h: -12.5%

CC(C)Oc1ccc(C(=O)N2CCC(Nc3cccnn3)CC2)cn1
cytotoxicity at 70.5 h: -5.88%

OCc1cc2ccccc2nc1NCC1CC1
cytotoxicity at 70.5 h: -4.89%

CCOc1ccc(Cl)c(C(=O)N2CCCC(c3ccn[nH]3)C2)n1 (stereo not drawn)
cytotoxicity at 70.5 h: -2.59%

CCN1CCN(C2CCN(Cc3nc(C4CC4)no3)CC2)C1=O
cytotoxicity at 70.5 h: -5.25%

CCN1CCC(NC(=O)c2ccc(F)cc2I)CC1
cytotoxicity at 70.5 h: -7.1%

CCN1CCN(C2CCN(Cc3nnc(C(C)(C)C)o3)CC2)C1=O
cytotoxicity at 70.5 h: -11.1%

CN(CC(=O)Nc1cc(CC2CCCCC2)n[nH]1)S(C)(=O)=O
cytotoxicity at 70.5 h: -4.16%

Cc1ccccc1C(C#N)NC(=O)CCCOc1cccnc1 (stereo not drawn)
cytotoxicity at 70.5 h: -0.163%

Cc1nc(C(=O)N2CCN(S(=O)(=O)N(C)C)CC2)c(-c2ccccc2)s1
cytotoxicity at 70.5 h: 13.5%

O=C1CN(Cc2ccc(-c3ccccc3C(=O)O)cc2)CCN1
cytotoxicity at 70.5 h: 37.1%

CCN(CC)c1ncc(Cl)c(C(=O)NC2CCc3nccn3C2)n1 (stereo not drawn)
cytotoxicity at 70.5 h: -13.5%

O=C(c1cc2c(s1)CCCC2)N1CCc2nc(C3CCCN3)ncc2C1 (stereo not drawn)
cytotoxicity at 70.5 h: 6.76%

O=C1NCCCc2[nH]c(C3CCCN(C(=O)C4CC4)C3)nc21 (stereo not drawn)
cytotoxicity at 70.5 h: -10.4%

O=C(NC1CC1)[C@H]1CC[C@@H]2[C@@H](CCN2c2ncc(F)cn2)O1
cytotoxicity at 70.5 h: -11.8%

CC(C)NC[C@@]1(COc2ccccc2)C[C@@H](O)[C@@H](O)C1
cytotoxicity at 70.5 h: -5.31%

Cc1cc(S(=O)(=O)NCC(C)(O)CN(C)C)c(F)cc1F (stereo not drawn)
cytotoxicity at 70.5 h: -9.95%

CCC1=N[C@@]2(CC[C@@H]3CN(C(=O)NCc4ccccc4C)C[C@@H]32)C(=O)N1
cytotoxicity at 70.5 h: -11.1%

NC(=O)C(c1ccc(F)cc1)N1CCN(CCO)CC1 (stereo not drawn)
cytotoxicity at 70.5 h: -6.75%

CC(C)c1nnc2n1CCN(C(=O)c1cc3cc(F)ccc3[nH]1)C2
cytotoxicity at 70.5 h: -16.2%

CCc1n[nH]c(C2CN(C(=O)CCn3ccccc3=O)CCO2)n1 (stereo not drawn)
cytotoxicity at 70.5 h: -2.35%

CN1CCN(C2CCCC2)C(CCO)C1 (stereo not drawn)
cytotoxicity at 70.5 h: -1.81%

CCNC(=O)[C@@H]1C[C@@H](N)CN1C(=O)CCc1ccc(C)c(C)c1
cytotoxicity at 70.5 h: -10.5%

COc1ncccc1NC(=O)N1CCOCC1C (stereo not drawn)
cytotoxicity at 70.5 h: 4.15%

Cc1cccc(C)c1CN1C(=O)CC2(CCSC2)C1=O (stereo not drawn)
cytotoxicity at 70.5 h: 0.0631%

CN1CC(C(=O)NCc2cccnc2OCc2ccccc2)CC1=O (stereo not drawn)
cytotoxicity at 70.5 h: -4.14%

O=C(Nc1cnn(Cc2ccc(Cl)cc2)c1)N1CCCC1CO (stereo not drawn)
cytotoxicity at 70.5 h: -7.38%

CC(=O)N1CCN([C@@H]2CC[C@@H](NC(=O)c3cncc(C)c3)[C@H]2O)CC1
cytotoxicity at 70.5 h: 24%

CC(=O)NCCC1CCCCN1S(=O)(=O)c1cccc(Cl)c1 (stereo not drawn)
cytotoxicity at 70.5 h: 36.4%

Cn1ccnc1CN1CCN(CC(=O)NCc2cccs2)CC1
cytotoxicity at 70.5 h: 13.9%

Cn1cnc2ccc(NC(=O)CCCn3cccn3)cc2c1=O
cytotoxicity at 70.5 h: -13.5%

Cc1nc(C(C)NC(=O)NCc2nccn2CC(C)C)cs1 (stereo not drawn)
cytotoxicity at 70.5 h: 4.05%

CC1(C)CN(S(=O)(=O)N2CCOCC2)CC1c1ccccc1 (stereo not drawn)
cytotoxicity at 70.5 h: 1.45%

COCc1ncc(CN(Cc2ccncc2)Cc2ccc(C)s2)cn1
cytotoxicity at 70.5 h: -6.86%

Cc1ccc(CNCc2cccc(NC(=O)CCN3CCOCC3)c2)s1
cytotoxicity at 70.5 h: -5.6%

CC(C)Cc1cc(NC(=O)c2cc(Cl)c[nH]2)n(C)n1
cytotoxicity at 70.5 h: -8.43%

CC(C)c1cnc(CN2CCCC(c3cc(C(N)=O)[nH]n3)C2)o1 (stereo not drawn)
cytotoxicity at 70.5 h: 2.28%

COc1ccc(C(=O)N2CCN3C(=O)CNC(=O)[C@@H]3C2)cc1
cytotoxicity at 70.5 h: 12.5%

Cc1cc(C(=O)NCc2c(C)nn(C)c2C)nc(N2CCOCC2)n1
cytotoxicity at 70.5 h: -1.14%

O=c1[nH]c2c(c(=O)n1C1CCCCC1)CCC2Nc1ccc(Cl)cc1 (stereo not drawn)
cytotoxicity at 70.5 h: -12.5%

Cc1noc(OCCOc2cccc(C#N)c2)n1
cytotoxicity at 70.5 h: -3.56%

Nc1cc(N2CCCC(CO)(Cc3ccccc3F)C2)nc(N)n1 (stereo not drawn)
cytotoxicity at 70.5 h: 28.8%

CCc1nc(C)sc1CN1CC[C@@](O)(C2CC2)[C@H](C)C1
cytotoxicity at 70.5 h: -7.56%

CCOc1ncccc1CNC(=O)N1CCC(n2cncn2)CC1
cytotoxicity at 70.5 h: -0.329%

O=C(NCC1(O)CCOC1)NCC1(c2ccccc2Cl)CCC1 (stereo not drawn)
cytotoxicity at 70.5 h: 0.471%

CC(C)NC(=O)[C@H]1C[C@@H]2[C@@H](C1)OCCN2Cc1ccco1
cytotoxicity at 70.5 h: -8.12%

COc1ccc(Nc2nc3c(C)nn(C)c3c(=O)n2C)c(OC)c1
cytotoxicity at 70.5 h: -18.2%

Cc1nn2cnnc2c(C)c1CCC(=O)Nc1nnc(C2CC2)s1
cytotoxicity at 70.5 h: -10.7%

Cc1nc(COc2ccc(OCC(N)=O)cc2)oc1C
cytotoxicity at 70.5 h: -8.19%

O=C(NC1CCCCC1)c1cc(Br)cnc1N1CCCCC1
cytotoxicity at 70.5 h: -4.56%

Cc1cc(C(=O)N(C)C2CCS(=O)(=O)C2)c2ccc(F)cc2n1 (stereo not drawn)
cytotoxicity at 70.5 h: 10.8%

c1ccc(-c2ncn(CCCN3CCOCC3)c2-c2ccncc2)cc1
cytotoxicity at 70.5 h: -6.69%

CNS(=O)(=O)C1CCN(c2cc(C(C)C)nc(C(C)C)n2)C1 (stereo not drawn)
cytotoxicity at 70.5 h: -6.44%

CNC(=O)c1cc(C)n(-c2ccccc2)n1
cytotoxicity at 70.5 h: -2.98%

CCOc1ccc(CN2CCC(c3nc(C)cc(C)n3)C2)cc1CO (stereo not drawn)
cytotoxicity at 70.5 h: 2.12%

Cc1ccc(C(N)=O)c(N2C[C@H]3OC(=O)N(C4CCCC4)[C@H]3C2)n1
cytotoxicity at 70.5 h: -11.9%

O=C(c1cccc(S(=O)(=O)NCCCn2cccn2)c1)N1CCOCC1
cytotoxicity at 70.5 h: -1.43%

O=C(CN1CCOC(Cn2cccn2)C1)NCCc1ccc(F)cc1 (stereo not drawn)
cytotoxicity at 70.5 h: -13.9%

COc1ccccc1N1CCN(C(=O)CCn2ccnc2C)CC1(C)C
cytotoxicity at 70.5 h: 21.5%

COc1ncccc1C1CC(=O)Nc2cc(NS(C)(=O)=O)ccc21 (stereo not drawn)
cytotoxicity at 70.5 h: -9.6%

CC(C)c1ccc(/C=C/CC(=O)NC2CCN(C(N)=O)CC2)cc1
cytotoxicity at 70.5 h: -9.67%

O=c1[nH][nH]cc1-c1ccnc(NCCN2CCCC2)n1
cytotoxicity at 70.5 h: 50.4%

COc1ccccc1CN1CCCC(Cc2nccnc2N)C1 (stereo not drawn)
cytotoxicity at 70.5 h: -8.24%

Cc1cc(C(F)(F)F)nc(CCNc2nc(C)nc3sccc23)n1
cytotoxicity at 70.5 h: 15.7%

CCc1c(C)sc2c1c(N)nc(=O)n2CCN(C)C
cytotoxicity at 70.5 h: 18.9%

CC(=O)NC1CCCN(Cc2ccn(C)c(=O)c2)C1 (stereo not drawn)
cytotoxicity at 70.5 h: -9.51%

Cc1cccc(CN2CC3(CCN(S(=O)(=O)C4CC4)CC3)OCC2=O)n1
cytotoxicity at 70.5 h: -0.285%
